This is an account of results in article PMC9512246, “GAPDH mediates drug resistance and metabolism in Plasmodium falciparum malaria parasites” (PLoS Pathogens, 2022).

pKd: −log10 of the molar value. “And” between values parts separate entries of the source, which are not always exact repeats. Identical values can stand only once.

Assay [1] has as its target T1, glyceraldehyde 3-phosphate dehydrogenase (PfGAPDH, wild-type) (Plasmodium falciparum, UniProt Q8IKK7).
T1 construct: gene PF3D7_1462800; recombinant PfGAPDH, N-terminal 6x-His tag, N-term and C-term modifications for improved solubility
The assay is described as follows: Michaelis-Menten kinetics of purified enzyme (Abs340, NADH formation). Type of assay: biochemical.

The target in assay [2] is Plasmodium falciparum glyceraldehyde 3-phosphate dehydrogenase, wild type (recombinant) (Plasmodium falciparum) (UniProt Q8IKK7). The assay can be described thus: SEC; analytical size exclusion chromatography; 1mg of purified protein in 1mL of FPLC buffer (100mM Tris-HCl pH 7.5, 1mM MgCl2, 1mM DTT, 10% w/v glycerol); all proteins prepped the same day and dialyzed in the same buffer the night before at 4°C. (SEC sorts molecules by how far they enter the pores of the column.)

For assay [3], the target named is Plasmodium falciparum glyceraldehyde 3-phosphate dehydrogenase V238A variant (recombinant) (Plasmodium falciparum) (UniProt Q8IKK7). The description is as above.
Assay [4] has as its target Plasmodium falciparum glyceraldehyde 3-phosphate dehydrogenase I209T variant (recombinant) (Plasmodium falciparum) (UniProt Q8IKK7). The assay is described as above.
Assay [5] concerns the target T2, glyceraldehyde 3-phosphate dehydrogenase (PfGAPDH I209T) (Plasmodium falciparum, UniProt Q8IKK7, I209T).
T2 construct: gene PF3D7_1462800; recombinant PfGAPDH, N-terminal 6x-His tag, N-term and C-term modifications for improved solubility
The assay can be described thus: heme titration by absorption spectroscopy (purified protein). The class given is binding.

Assay [6] addresses T1, glyceraldehyde 3-phosphate dehydrogenase (PfGAPDH, wild-type). The assay can be described thus: heme titration by absorption spectroscopy (purified protein); enzyme inhibition also measured, EC50 =[…]. Type of assay: binding.

For `O=C[C@H](O)COP(=O)(O)O` [D-glyceraldehyde 3-phosphate], the “Michaelis-Menten kinetics of purified enzyme (Abs340, NADH formation)” value in assay [1] was “FSM-resistant and wild-type enzymes shared Michaelis-Menten constants for all three substrates NAD+, GAP, and Pi”.

A word on the stoichiometry N: it is a count of units in the complex or per binding partner. In the case of “Plasmodium falciparum glyceraldehyde 3-phosphate dehydrogenase, wild type (recombinant) (from UniProt Q8IKK7 4-335) (enzyme)”, the stoichiometry N in assay [2] came out at 4.

Regarding `NC(=O)c1ccc[n+]([C@@H]2O[C@H](COP(=O)([O-])OP(=O)(O)OC[C@H]3O[C@@H](n4cnc5c(N)ncnc54)[C@H](O)[C@@H]3O)[C@@H](O)[C@H]2O)c1` [NAD+], the “Michaelis-Menten kinetics of purified enzyme (Abs340, NADH formation)” value in assay [1] was “FSM-resistant and wild-type enzymes shared Michaelis-Menten constants for all three substrates NAD+, GAP, and Pi”.

Regarding “Plasmodium falciparum glyceraldehyde 3-phosphate dehydrogenase V238A variant (recombinant) (from UniProt Q8IKK7 4-335) (enzyme)”, the stoichiometry N in assay [3] is 4 and 2.

With “Plasmodium falciparum glyceraldehyde 3-phosphate dehydrogenase I209T variant (recombinant) (from UniProt Q8IKK7 4-335) (enzyme)”, in assay [4], the stoichiometry N was 4 and 2.

Usually pKd stands for the Kd on a negative log10 scale, so that one unit is a factor of ten. Low values mean a high Kd, high ones a low Kd. For `C=CC1=C(C)C2=Cc3c(C=C)c(C)c4[n]3[Fe][n]3c(c(C)c(CCC(=O)O)c3=CC3=NC(=C4)C(C)=C3CCC(=O)O)=CC1=N2` [heme], the pKd in assay [5] was 5.74; in assay [6], 6.13.
